Assay results published in ChEMBL document CHEMBL1201862, “PubChem BioAssay data set” (2004).
Activity calls are given as the source filed them.

Legend:
[1] = MIN6 cell viability loss – mouse insulinoma, cytotoxicity control, dose response (AID 2122); assay type: functional;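 note: confirmatory high-throughput counterscreen run to flag cytotoxic compounds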
[2] = molecular target: Beta-2 adrenergic receptor (Homo sapiens, UniProt P07550); assay: ADRB2 activation measured by internalization – cell-based, FAP fluorogen, flow cytometry, cherry pick 1, dose response (AID 588763); assay type: functional
[3] = decrease of insulin promoter-GFP reporter – imaging, high-content screening, mouse beta cells (AID 1628); assay type: functional; details: MIN6
[4] = luciferase reporter signal suppression in cells – H4 neuroglioma cells, luminescence, dose response (AID 1990); assay type: functional, cell-based
HeLa = assay: toxicity to human HeLa cells – cell-based, 48 h, plate reader, cherry-picks, cytotoxicity control, dose response (AID 504942); assay type: functional
[5] = alpha-synuclein stem-loop luciferase translation blockers – H4 neuroglioma cells, luminescence, confirmation (AID 1988); assay type: functional, cell-based
[6] = molecular target: Acyl-homoserine lactone acylase PvdQ (Pseudomonas aeruginosa (strain LESB58), UniProt Q9I194); assay: PvdQ acylase enzyme activity blockers – biochemical, fluorescence, plate reader and imaging, cherry-picks, dose response (AID 493231)
Bcl-2-like protein 10 = Bcl-2-like protein 10 (Homo sapiens, UniProt Q9HD36); assay: Isothermal titration calorimetry (ITC) with Bcl-B and compounds active in primary screen. [Related pubchem assays (depositor defined):AID1693]; assay type: functional
CAAX prenyl protease 2 [7] = molecular target: T1, CAAX prenyl protease 2 (Saccharomyces cerevisiae S288c, UniProt Q03530); assay type: biochemical
T1 sequence (Q03530 whole entry): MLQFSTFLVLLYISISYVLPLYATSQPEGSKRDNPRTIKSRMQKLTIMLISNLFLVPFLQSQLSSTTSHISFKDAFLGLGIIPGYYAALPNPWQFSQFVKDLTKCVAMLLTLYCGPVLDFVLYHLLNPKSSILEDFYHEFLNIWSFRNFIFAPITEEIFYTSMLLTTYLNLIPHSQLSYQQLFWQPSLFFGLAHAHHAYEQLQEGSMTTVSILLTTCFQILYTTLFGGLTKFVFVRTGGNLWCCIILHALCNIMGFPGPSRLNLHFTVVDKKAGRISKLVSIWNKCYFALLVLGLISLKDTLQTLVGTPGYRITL

CAAX prenyl protease 2 [8] = molecular target: CAAX prenyl protease 2 (Homo sapiens, UniProt Q9Y256); assay: inhibition of Ras-converting CAAX protease Rce1 – biochemical, yeast membranes, quenched-peptide fluorescence, cherry-pick, dose response (AID 588849)
Trypsin = Trypsin (Sus scrofa, UniProt P00761); assay: trypsin protease activity blockade – biochemical, quenched peptide fluorescence, cherry-pick, selectivity assay for Rce1 protease inhibitor project, dose response (AID 488789)
[9] = molecular target: T2, Endoribonuclease toxin MazF (Escherichia coli K-12, UniProt P0AE70); assay: activation of MazEF endoribonuclease cleavage – biochemical, fluorescence, single-stranded RNA substrate, uHTS hits, dose response (AID 588481); assay type: functional
[10] = molecular target: T2, Endoribonuclease toxin MazF; assay: substrate-only fluorescence increase artefacts – biochemical, single-stranded RNase substrate, counter-screen for MazEF activator project, dose response (AID 588502); assay type: functional
DNA topoisomerase = DNA topoisomerase (Yersinia pestis, UniProt A0A2S9PM60); assay: Yersinia topoisomerase I cleavage product accumulation – biochemical, cherry-pick, dose response (AID 588525)
INS1 [11] = assay: INS-1E survival protection against cytokine death – cell-based, luminescence, retest, dose response (AID 449756); assay type: functional; details: Rattus norvegicus;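 note: cell death triggered by IL-1 beta plus TNF-alpha plus IFN-gamma mixture; protective hits raise ATP signal compared with cytokine alone wells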
Candida albicans [12] = assay: single-agent toxicity toward C. albicans – CaCi-2 strain, no fluconazole, dry powder, set 4, counter-screen for reversing antifungal drug resistance, dose response (AID 488932); assay type: functional, organism-based
Candida albicans [13] = assay: C. albicans growth inhibition with fluconazole – CaCi-2 strain, Alamar Blue, dry powder, set 4, dose response (AID 488943); assay type: functional, organism-based
Candida albicans [14] = assay: fluconazole-resistant Candida strain growth inhibitors – CaCi-8 strain, dry powder, set 4, dose response (AID 488950); assay type: functional, organism-based
INS1 [15] = assay: beta-cell survival under cytokine stress – INS-1E, ATP luminescence, dry powder, dose response (AID 488844); assay type: functional, cell-based; details: Rattus norvegicus
INS1 [16] = assay: INS-1E mitochondrial potential rescue under cytokines – cell-based, JC-1 fluorescence ratio, dry powder, dose response (AID 488931); assay type: functional; details: Rattus norvegicus
Phospholipase D1 = Phospholipase D1 (Homo sapiens, UniProt Q13393); assay: cellular phospholipase D1 inhibition IC50 – cell-based, dose response (AID 602151); assay type: functional;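 note: cellular PLD1 assay in Calu-1 cells stimulated with PMA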
Phospholipase D2 = Phospholipase D2 (Homo sapiens, UniProt O14939); assay: cellular phospholipase D2 inhibition IC50 – cell-based, dose response (AID 602147); assay type: functional;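 note: cellular assay in HEK293 cells overexpressing GFP-tagged PLD2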
Hexokinase HKDC1 = molecular target: T3, Hexokinase HKDC1 (Homo sapiens, UniProt Q2TB90); assay: analog inhibition of human HKDC1 activity – biochemical, set 2, SAR follow-up (AID 588355); assay type: functional
T3 sequence (Q2TB90 whole entry): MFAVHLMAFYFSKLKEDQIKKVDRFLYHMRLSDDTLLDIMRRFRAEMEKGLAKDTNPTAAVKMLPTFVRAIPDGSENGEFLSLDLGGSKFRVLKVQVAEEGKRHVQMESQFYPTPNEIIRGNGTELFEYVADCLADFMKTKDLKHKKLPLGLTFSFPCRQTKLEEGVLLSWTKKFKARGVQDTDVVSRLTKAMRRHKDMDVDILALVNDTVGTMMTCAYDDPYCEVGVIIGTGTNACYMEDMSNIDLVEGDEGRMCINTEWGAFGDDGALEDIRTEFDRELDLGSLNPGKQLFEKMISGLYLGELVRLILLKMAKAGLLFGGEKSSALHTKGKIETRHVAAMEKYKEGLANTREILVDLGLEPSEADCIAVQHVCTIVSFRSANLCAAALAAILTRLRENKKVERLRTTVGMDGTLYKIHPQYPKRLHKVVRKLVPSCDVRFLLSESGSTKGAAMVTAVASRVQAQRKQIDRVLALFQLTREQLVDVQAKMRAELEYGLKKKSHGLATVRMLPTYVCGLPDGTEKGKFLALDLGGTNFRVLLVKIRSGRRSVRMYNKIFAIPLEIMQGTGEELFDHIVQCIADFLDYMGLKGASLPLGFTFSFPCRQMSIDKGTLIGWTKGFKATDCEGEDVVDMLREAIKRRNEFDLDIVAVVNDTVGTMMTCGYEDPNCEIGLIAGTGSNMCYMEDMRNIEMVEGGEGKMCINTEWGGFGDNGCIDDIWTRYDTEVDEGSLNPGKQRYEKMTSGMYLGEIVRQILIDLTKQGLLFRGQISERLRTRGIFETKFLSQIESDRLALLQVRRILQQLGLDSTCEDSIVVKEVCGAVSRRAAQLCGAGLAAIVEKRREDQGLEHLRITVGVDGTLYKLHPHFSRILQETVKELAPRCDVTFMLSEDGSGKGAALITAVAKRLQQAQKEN

Hexokinase-1 = Hexokinase-1 (Homo sapiens, UniProt P19367); assay: hexokinase 1 activity inhibitors, potency – biochemical, set 2, resazurin fluorescence coupled readout, selectivity assay for HKDC1 inhibitor project, SAR follow-up (AID 588356); assay type: functional
[17] = molecular target: Short transient receptor potential channel 6 (Mus musculus, UniProt Q61143); assay: mouse TRPC6 channel blockers, concentration series – HEK293 cells, membrane potential dye, IC50, selectivity assay for selective TRPC4 inhibitor project, dose response (AID 492987); assay type: functional, cell-based
[18] = molecular target: T4, Short transient receptor potential channel 4 (Mus musculus, UniProt Q9QUQ5); assay: SAR Analysis for the identification of selective inhibits of the transient receptor potential cation channel C4 (TRPC4): Automated Electrophysiology. [Related pubchem assays (depositor defined):AID2256]; assay type: functional
T4 sequence (Q9QUQ5 whole entry): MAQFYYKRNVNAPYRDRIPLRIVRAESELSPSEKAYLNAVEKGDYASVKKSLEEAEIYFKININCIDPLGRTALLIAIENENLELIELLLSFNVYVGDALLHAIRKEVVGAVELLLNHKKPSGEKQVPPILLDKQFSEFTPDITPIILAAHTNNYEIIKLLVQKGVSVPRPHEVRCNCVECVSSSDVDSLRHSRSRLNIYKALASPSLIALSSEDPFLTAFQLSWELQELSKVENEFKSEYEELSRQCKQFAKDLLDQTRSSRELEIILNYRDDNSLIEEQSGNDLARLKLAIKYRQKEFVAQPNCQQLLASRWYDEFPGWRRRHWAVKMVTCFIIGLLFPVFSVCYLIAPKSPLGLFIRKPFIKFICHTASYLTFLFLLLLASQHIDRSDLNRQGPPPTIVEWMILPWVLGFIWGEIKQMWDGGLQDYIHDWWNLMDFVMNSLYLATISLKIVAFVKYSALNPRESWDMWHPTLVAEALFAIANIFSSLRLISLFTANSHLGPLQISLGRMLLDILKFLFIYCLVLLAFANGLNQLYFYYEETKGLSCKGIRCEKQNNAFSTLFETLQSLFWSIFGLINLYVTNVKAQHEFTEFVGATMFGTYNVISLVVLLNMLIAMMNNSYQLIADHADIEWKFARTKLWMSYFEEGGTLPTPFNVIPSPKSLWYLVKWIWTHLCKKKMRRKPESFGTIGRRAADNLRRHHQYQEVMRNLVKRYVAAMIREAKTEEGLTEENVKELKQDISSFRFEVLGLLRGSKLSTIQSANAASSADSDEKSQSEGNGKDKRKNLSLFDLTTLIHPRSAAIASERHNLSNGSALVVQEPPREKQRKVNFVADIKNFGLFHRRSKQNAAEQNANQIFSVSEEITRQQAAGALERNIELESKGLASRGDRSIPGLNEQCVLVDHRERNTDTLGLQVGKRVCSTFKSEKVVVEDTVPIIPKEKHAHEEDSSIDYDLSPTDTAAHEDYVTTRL

[19] = molecular target: T4, Short transient receptor potential channel 4; assay: potency of mouse TRPC4 calcium flux blockers – cell-based, HEK293 TRPC4/mu-opioid, DAMGO stimulus, Fluo-4, dose response (AID 492994); assay type: functional

T2 sequence (P0AE70 whole entry): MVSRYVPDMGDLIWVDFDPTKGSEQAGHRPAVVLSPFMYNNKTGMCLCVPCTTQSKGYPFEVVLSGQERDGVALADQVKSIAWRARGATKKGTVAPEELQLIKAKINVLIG
Sequence of Phospholipase D2 (O14939 whole entry): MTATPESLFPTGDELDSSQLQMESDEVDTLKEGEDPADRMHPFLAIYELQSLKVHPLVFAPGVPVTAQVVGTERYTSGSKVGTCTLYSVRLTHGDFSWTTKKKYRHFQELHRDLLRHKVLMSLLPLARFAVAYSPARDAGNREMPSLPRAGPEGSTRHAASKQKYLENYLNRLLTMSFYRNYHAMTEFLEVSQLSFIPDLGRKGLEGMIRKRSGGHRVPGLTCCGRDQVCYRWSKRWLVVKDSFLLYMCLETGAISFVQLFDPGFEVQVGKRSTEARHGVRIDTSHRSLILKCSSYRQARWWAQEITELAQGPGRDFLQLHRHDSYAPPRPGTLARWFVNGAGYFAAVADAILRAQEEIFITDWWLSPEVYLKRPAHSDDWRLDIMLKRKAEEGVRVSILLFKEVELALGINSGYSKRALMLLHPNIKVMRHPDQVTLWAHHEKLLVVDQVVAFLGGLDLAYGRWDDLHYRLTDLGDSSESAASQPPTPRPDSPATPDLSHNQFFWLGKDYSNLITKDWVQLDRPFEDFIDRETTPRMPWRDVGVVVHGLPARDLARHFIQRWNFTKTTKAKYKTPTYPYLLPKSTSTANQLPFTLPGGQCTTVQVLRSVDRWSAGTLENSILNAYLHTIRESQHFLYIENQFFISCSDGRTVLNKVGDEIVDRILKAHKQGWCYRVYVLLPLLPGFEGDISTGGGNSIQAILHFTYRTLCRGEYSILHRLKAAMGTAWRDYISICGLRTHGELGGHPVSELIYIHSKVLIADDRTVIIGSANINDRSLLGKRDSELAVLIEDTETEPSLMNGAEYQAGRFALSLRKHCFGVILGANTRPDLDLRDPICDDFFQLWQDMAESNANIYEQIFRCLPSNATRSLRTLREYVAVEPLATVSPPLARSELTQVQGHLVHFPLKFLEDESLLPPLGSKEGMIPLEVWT
Sequence of DNA topoisomerase (A0A2S9PM60 whole entry): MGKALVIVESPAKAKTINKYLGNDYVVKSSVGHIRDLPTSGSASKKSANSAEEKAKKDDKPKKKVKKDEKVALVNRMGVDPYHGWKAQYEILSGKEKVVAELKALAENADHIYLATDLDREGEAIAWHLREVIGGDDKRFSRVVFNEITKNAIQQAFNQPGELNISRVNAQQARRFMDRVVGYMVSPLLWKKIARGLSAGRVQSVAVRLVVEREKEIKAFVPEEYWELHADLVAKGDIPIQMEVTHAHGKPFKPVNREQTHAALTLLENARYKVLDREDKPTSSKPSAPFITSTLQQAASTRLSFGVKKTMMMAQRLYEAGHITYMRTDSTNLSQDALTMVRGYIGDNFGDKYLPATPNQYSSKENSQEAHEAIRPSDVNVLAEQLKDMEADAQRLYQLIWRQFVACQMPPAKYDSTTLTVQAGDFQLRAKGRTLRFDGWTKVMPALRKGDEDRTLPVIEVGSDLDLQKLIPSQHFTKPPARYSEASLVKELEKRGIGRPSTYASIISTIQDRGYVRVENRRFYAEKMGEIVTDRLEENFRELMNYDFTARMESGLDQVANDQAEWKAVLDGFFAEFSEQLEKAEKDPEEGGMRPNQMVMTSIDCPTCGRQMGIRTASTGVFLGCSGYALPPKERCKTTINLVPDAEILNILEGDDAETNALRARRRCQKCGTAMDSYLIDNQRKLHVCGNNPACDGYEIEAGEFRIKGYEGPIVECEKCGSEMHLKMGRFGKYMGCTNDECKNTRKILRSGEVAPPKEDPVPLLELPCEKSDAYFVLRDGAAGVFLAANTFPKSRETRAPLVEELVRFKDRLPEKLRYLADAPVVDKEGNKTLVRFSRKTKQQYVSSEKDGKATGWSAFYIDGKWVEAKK
Sequence of Short transient receptor potential channel 6 (Q61143 whole entry): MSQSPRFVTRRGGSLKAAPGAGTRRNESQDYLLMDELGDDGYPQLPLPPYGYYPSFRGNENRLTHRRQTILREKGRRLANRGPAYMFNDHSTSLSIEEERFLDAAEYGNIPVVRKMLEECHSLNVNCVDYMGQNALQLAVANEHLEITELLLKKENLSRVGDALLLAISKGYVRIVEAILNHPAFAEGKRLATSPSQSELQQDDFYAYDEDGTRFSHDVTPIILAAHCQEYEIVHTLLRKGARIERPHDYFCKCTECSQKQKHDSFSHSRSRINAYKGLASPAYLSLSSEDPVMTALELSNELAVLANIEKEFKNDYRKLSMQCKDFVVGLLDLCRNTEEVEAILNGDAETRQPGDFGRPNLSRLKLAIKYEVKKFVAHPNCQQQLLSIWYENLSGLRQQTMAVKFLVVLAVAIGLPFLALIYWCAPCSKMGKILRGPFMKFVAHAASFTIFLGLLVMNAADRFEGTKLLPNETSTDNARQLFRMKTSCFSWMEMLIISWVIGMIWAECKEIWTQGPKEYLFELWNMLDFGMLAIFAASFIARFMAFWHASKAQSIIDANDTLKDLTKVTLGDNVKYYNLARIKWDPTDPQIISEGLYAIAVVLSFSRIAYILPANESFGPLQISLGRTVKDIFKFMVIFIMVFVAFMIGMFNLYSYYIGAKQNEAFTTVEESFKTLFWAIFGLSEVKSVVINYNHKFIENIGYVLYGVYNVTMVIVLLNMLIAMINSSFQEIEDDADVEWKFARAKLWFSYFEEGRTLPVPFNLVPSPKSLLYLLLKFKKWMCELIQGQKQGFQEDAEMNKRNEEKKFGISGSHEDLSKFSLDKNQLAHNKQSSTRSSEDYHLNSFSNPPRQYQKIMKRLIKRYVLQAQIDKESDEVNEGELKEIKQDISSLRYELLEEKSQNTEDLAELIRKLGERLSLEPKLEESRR
Sequence of Trypsin (P00761 whole entry): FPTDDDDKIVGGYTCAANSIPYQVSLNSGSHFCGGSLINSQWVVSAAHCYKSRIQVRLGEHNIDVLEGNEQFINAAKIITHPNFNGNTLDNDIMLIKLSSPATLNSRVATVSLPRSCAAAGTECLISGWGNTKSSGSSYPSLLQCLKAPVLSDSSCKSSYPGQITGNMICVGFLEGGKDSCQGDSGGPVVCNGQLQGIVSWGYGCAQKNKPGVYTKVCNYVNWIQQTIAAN
Sequence of CAAX prenyl protease 2 (Homo sapiens, UniProt Q9Y256) (Q9Y256 whole entry): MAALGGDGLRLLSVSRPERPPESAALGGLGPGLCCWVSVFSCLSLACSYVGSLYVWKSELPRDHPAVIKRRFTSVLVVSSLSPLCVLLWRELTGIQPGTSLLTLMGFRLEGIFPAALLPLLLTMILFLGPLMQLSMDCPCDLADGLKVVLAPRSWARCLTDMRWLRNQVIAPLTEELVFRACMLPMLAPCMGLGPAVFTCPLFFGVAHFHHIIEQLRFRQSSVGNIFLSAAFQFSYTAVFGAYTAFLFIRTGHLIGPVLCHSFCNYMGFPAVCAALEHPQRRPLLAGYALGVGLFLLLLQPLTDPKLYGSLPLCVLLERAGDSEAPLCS
Sequence of Hexokinase-1 (P19367 whole entry): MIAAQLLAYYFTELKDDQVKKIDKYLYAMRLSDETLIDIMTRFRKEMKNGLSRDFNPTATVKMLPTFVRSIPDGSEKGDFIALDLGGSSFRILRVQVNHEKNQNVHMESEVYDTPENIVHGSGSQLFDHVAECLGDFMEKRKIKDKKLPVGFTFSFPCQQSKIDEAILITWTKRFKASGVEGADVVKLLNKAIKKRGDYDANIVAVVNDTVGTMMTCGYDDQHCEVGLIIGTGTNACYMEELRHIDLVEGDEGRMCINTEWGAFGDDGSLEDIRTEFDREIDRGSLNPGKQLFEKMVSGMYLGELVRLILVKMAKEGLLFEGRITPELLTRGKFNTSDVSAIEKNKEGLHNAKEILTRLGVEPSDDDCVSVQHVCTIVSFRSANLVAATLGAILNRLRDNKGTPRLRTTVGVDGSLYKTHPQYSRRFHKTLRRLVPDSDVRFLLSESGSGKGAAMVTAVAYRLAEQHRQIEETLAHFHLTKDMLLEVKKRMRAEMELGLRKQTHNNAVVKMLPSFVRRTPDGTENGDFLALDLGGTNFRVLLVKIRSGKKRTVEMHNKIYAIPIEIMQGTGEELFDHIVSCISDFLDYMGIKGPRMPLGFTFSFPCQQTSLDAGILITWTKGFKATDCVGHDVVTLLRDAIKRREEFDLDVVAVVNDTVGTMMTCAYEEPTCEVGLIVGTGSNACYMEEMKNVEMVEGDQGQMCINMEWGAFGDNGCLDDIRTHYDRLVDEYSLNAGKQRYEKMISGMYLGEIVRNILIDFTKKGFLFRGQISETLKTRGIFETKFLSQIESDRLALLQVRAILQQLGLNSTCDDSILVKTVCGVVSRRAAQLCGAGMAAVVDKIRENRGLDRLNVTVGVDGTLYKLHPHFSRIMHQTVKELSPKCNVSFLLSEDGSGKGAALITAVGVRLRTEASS
Sequence of Beta-2 adrenergic receptor (P07550 whole entry): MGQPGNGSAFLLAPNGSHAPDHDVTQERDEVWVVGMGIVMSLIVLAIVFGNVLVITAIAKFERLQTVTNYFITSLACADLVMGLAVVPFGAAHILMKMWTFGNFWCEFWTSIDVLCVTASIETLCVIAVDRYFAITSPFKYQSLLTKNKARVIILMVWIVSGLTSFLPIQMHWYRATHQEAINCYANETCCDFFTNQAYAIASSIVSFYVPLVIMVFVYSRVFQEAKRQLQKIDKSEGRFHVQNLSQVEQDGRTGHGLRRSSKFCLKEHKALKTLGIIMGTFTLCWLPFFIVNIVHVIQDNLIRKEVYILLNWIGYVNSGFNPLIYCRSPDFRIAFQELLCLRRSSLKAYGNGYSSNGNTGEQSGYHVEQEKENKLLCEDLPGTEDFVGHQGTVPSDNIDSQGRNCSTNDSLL
Sequence of Bcl-2-like protein 10 (Q9HD36 whole entry): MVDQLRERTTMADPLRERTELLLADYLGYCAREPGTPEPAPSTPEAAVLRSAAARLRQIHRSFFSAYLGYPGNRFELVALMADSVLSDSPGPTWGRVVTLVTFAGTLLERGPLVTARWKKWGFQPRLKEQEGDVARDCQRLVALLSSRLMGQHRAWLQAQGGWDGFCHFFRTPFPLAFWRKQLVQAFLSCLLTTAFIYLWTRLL

SMILES: CC1(C)Cc2c(c(-c3ccco3)nc3sc4c(NCCO)ncnc4c23)CO1
- IC50 [1]: > 16 µM (inactive)
- EC50 [2]: 0.0133 µM (active)
- IC50 [3]: 0.909 µM (active)

SMILES: COc1ccc(C2=C(C=O)Cc3ccccc3O2)cc1
- EC50 [4]: > 120 µM (not active)
- AC50 (HeLa): > 380 µM (inactive)
- EC50 [5]: > 120 µM (not active)
- AC50 [6]: 4.37 µM (active)

SMILES: O=C1NC(=O)C2(Cc3c(nc4ccccn4c3=O)N3CCCCCC32)C(=O)N1Cc1ccccc1 (configuration not stated)
- IC50 (Bcl-2-like protein 10): 2.51 µM (active)

SMILES: CC1=C(C)C(C)=C(C#N)C(=C(C#N)C#N)N1
- AC50 (CAAX prenyl protease 2 [7]): 13.2 µM (active)
- AC50 (CAAX prenyl protease 2 [8]): 13.9 µM (active)
- AC50 (Trypsin): 12.1 µM (active)

SMILES: Cc1ccc(O)c(C2=Nc3ccccc3N=C(c3ccco3)C2)c1
- EC50 [9]: > 99 µM (inactive)
- EC50 [10]: 75.1 µM (inactive)

SMILES: CC(C)(C)OC(=O)NCc1ccc(NC(=O)c2[nH]cnc2C(=O)NCCNC(=O)c2nc[nH]c2C(=O)Nc2ccc(CNC(=O)OC(C)(C)C)cc2)cc1
- AC50 (DNA topoisomerase): 2.49 µM (active)
- AC50 (INS1 [11]): 6.59 µM (active)

SMILES: O=C(c1ccc(Cl)cc1)N1CCN(c2cnccn2)CC1
- AC50 (Candida albicans [12]): 234 µM (active)
- AC50 (Candida albicans [13]): 12.7 µM (active)
- AC50 (Candida albicans [14]): 10.7 µM (active)

SMILES: Cc1ccc(S(=O)(=O)N(C)C[C@@H]2Oc3c(NC(=O)Nc4ccccc4)cccc3C(=O)N([C@H](C)CO)C[C@H]2C)cc1
- AC50 (INS1 [15]): 22.6 µM (active)
- AC50 (INS1 [16]): 141 µM (active)

SMILES: O=C(NCCN1CCC2(CC1)C(=O)NCN2c1ccc(F)c(F)c1)c1ccc(Cl)cc1
- IC50 (Phospholipase D1): 2.36 µM (active)
- IC50 (Phospholipase D2): 0.37 µM (active)

SMILES: O=c1c2c(F)cccc2nc(/C=C/c2cccnc2)n1Cc1ccccc1
- IC50 (Hexokinase HKDC1): > 80 µM (inactive)
- IC50 (Hexokinase-1): > 80 µM (inactive)

SMILES: Cc1cc(N2CCCCC2)nc2ccc(F)cc12
- IC50 [17]: 20.1 µM (active)
- IC50 [18]: 6.18 µM (active)
- IC50 [19]: 10.5 µM (active)
